Assay results taken from US6660742B2, “Compositions and methods of the use thereof achiral analogues of CC-1065 and the duocarmycins” (priority 2000, dated 2003).
Where two headings read alike, the source gives them in different places.

Experiments:
IGROV1 = experiment: NCI screen, IGROV1 (Ovarian Cancer); format: cell-based, human; settings: IGROV1, 48 hour exposure
Experimental: (§1) The compounds of this invention were also tested against the panel of 60 human cancer cell lines at the National Cancer Institute, Bethesda, Md. […] The cytrotoxicity studies were conducted using a 48 hour exposure, and measuring the optical density of sulforhodamide B-derived color.

HOP-62 = experiment: NCI screen, HOP-62 (Non-Small Cell Lung Cancer)
Experimental: as §1

CCRF-CEM = experiment: NCI screen, CCRF-CEM (Leukemia)
Experimental: as §1

MCF7 = experiment: NCI screen, MCF7 (Breast Cancer)
Experimental: as §1

SK-MEL-28 = experiment: NCI screen, SK-MEL-28 (Melanoma)
Experimental: as §1

NCI-H23 = experiment: NCI screen, NCI-H23 (Non-Small Cell Lung Cancer)
Experimental: as §1

HCC-2998 = experiment: NCI screen, HCC-2998 (Colon Cancer)
Experimental: as §1

HS 578T = experiment: NCI screen, HS 578T (Breast Cancer); settings: HS 578T, 48 hour exposure
Experimental: The compounds of this invention were also tested against the panel of 60 human cancer cell lines at the National Cancer Institute, Bethesda, Md. (44). The cytrotoxicity studies were conducted using a 48 hour exposure, and measuring the optical density of sulforhodamide B-derived color.

CAKI-1 = experiment: NCI screen, CAKI-1 (Renal Cancer); settings: CAKI-1, 48 hour exposure
Experimental: as §1

HT29 = experiment: NCI screen, HT29 (Colon Cancer)
Experimental: as §1

SW-620 = experiment: NCI screen, SW-620 (Colon Cancer); format: cell-based, human
Experimental: as §1

NCI-H322M = settings: NCI-H322M; Log10 Concentration −5.3; 48 hour exposure
SK-MEL-5 = experiment: NCI screen, SK-MEL-5 (Melanoma)
Experimental: as §1

MCF7/ADR-RES = experiment: NCI screen, MCF7/ADR-RES (Breast Cancer); format: cell-based, human; settings: NCI/ADR-RES, 48 hour exposure
Experimental: as §1

SN12C = experiment: NCI screen, SN12C (Renal Cancer)
Experimental: as §1

HCT-116 = experiment: NCI screen, HCT-116 (Colon Cancer); settings: HCT-116, 48 hour exposure
Experimental: as §1

NCI-H226 = experiment: NCI screen, NCI-H226 (Non-Small Cell Lung Cancer); format: cell-based, human
Experimental: as §1

SF-539 = experiment: NCI screen, SF-539 (CNS Cancer)
Experimental: as §1

TK-10 = experiment: NCI screen, TK-10 (Renal Cancer); settings: TK-10, 48 hour exposure
Experimental: as §1

SNB-75 = experiment: NCI screen, SNB-75 (CNS Cancer); settings: SNB-75, 48 hour exposure
Experimental: as §1

[1] = Log10 Concentration −4.3, 48 hour exposure
[2] = Log10 Concentration −5.3, 48 hour exposure
[3] = Log10 Concentration −6.3, 48 hour exposure
[4] = Log10 Concentration −7.3, 48 hour exposure
[5] = Log10 Concentration −8.3, 48 hour exposure

COC(=O)c1[nH]c2c(O)cc(NC(=O)c3cc4cc(OC)c(OC)c(OC)c4[nH]3)c(CCCl)c2c1C(=O)OC [Compound 22, Dimethyl 4-(2-chloroethyl)-7-hydroxy-5-(5,6,7-trimethoxyindole-2-carboxamido)indole-2,3-dicarboxylate]
TGI (IGROV1): 1.62E−07 Molar | Percent Growth (IGROV1; Log10 Concentration −4.3): −80% | Percent Growth (IGROV1; Log10 Concentration −5.3): −35% | Percent Growth (IGROV1; Log10 Concentration −6.3): −59% | Percent Growth (IGROV1; Log10 Concentration −7.3): 61% | Percent Growth (IGROV1; Log10 Concentration −8.3): 71% | TGI (HOP-62; 48 hour exposure): 2.51E−07 Molar | Percent Growth (HOP-62; [1]): −88% | Percent Growth (HOP-62; [2]): −39% | Percent Growth (HOP-62; [3]): −34% | Percent Growth (HOP-62; [4]): 80% | Percent Growth (HOP-62; [5]): 92% | TGI (CCRF-CEM; 48 hour exposure): >5.00E−05 Molar | Percent Growth (CCRF-CEM; [1]): 17% | Percent Growth (CCRF-CEM; [2]): 18% | Percent Growth (CCRF-CEM; [3]): 19% | Percent Growth (CCRF-CEM; [4]): 43% | Percent Growth (CCRF-CEM; [5]): 77% | TGI (MCF7; 48 hour exposure): 6.31E−06 Molar | Percent Growth (MCF7; [1]): −51% | Percent Growth (MCF7; [2]): 6% | Percent Growth (MCF7; [3]): 6% | Percent Growth (MCF7; [4]): 39% | Percent Growth (MCF7; [5]): 70% | TGI (SK-MEL-28; 48 hour exposure): 1.82E−06 Molar | Percent Growth (SK-MEL-28; [1]): −43% | Percent Growth (SK-MEL-28; [2]): −11% | Percent Growth (SK-MEL-28; [3]): 14% | Percent Growth (SK-MEL-28; [4]): 92% | Percent Growth (SK-MEL-28; [5]): 91% | TGI (NCI-H23; 48 hour exposure): 5.63E−06 Molar | Percent Growth (NCI-H23; [1]): −25% | Percent Growth (NCI-H23; [2]): 1% | Percent Growth (NCI-H23; [3]): 9% | Percent Growth (NCI-H23; [4]): 56% | Percent Growth (NCI-H23; [5]): 83% | TGI (HCC-2998; 48 hour exposure): 2.89E−07 Molar | Percent Growth (HCC-2998; [1]): −88% | Percent Growth (HCC-2998; [2]): −31% | Percent Growth (HCC-2998; [3]): −27% | Percent Growth (HCC-2998; [4]): 85% | Percent Growth (HCC-2998; [5]): 91% | TGI (RPMI-8226): >5.00E−05 Molar | TGI (HS 578T): 2.80E−07 Molar | Percent Growth (HS 578T; Log10 Concentration −4.3): −54% | Percent Growth (HS 578T; Log10 Concentration −5.3): −73% | Percent Growth (HS 578T; Log10 Concentration −6.3): −41% | Percent Growth (HS 578T; Log10 Concentration −7.3): 122% | Percent Growth (HS 578T; Log10 Concentration −8.3): 130% | TGI (CAKI-1): 8.01E−06 Molar | Percent Growth (CAKI-1; Log10 Concentration −4.3): −40% | Percent Growth (CAKI-1; Log10 Concentration −5.3): 10% | Percent Growth (CAKI-1; Log10 Concentration −6.3): 12% | Percent Growth (CAKI-1; Log10 Concentration −7.3): 83% | Percent Growth (CAKI-1; Log10 Concentration −8.3): 97% | TGI (HT29; 48 hour exposure): 2.28E−07 Molar | Percent Growth (HT29; [1]): −55% | Percent Growth (HT29; [2]): −59% | Percent Growth (HT29; [3]): −32% | Percent Growth (HT29; [4]): 63% | Percent Growth (HT29; [5]): 84% | TGI (SW-620; 48 hour exposure): 1.90E−05 Molar | Percent Growth (SW-620; [1]): −11% | Percent Growth (SW-620; [2]): 16% | Percent Growth (SW-620; [3]): 9% | Percent Growth (SW-620; [4]): 71% | Percent Growth (SW-620; [5]): 86% | Percent Growth (NCI-H322M): −8% | Percent Growth (SK-MEL-5; [1]): −19% | Percent Growth (SK-MEL-5; [2]): 9% | Percent Growth (SK-MEL-5; [3]): −2% | Percent Growth (SK-MEL-5; [4]): 42% | Percent Growth (SK-MEL-5; [5]): 86% | TGI (MCF7/ADR-RES): 8.17E−07 Molar | Percent Growth (MCF7/ADR-RES; Log10 Concentration −4.3): −41% | Percent Growth (MCF7/ADR-RES; Log10 Concentration −5.3): −58% | Percent Growth (MCF7/ADR-RES; Log10 Concentration −6.3): 16% | Percent Growth (MCF7/ADR-RES; Log10 Concentration −7.3): 77% | Percent Growth (MCF7/ADR-RES; Log10 Concentration −8.3): 97% | TGI (SN12C; 48 hour exposure): 7.17E−06 Molar | Percent Growth (SN12C; [1]): −50% | Percent Growth (SN12C; [2]): 9% | Percent Growth (SN12C; [3]): 22% | Percent Growth (SN12C; [4]): 84% | Percent Growth (SN12C; [5]): 90% | TGI (HCT-116): 1.95E−07 Molar | Percent Growth (HCT-116; Log10 Concentration −4.3): −59% | Percent Growth (HCT-116; Log10 Concentration −5.3): −9% | Percent Growth (HCT-116; Log10 Concentration −6.3): −43% | Percent Growth (HCT-116; Log10 Concentration −7.3): 62% | Percent Growth (HCT-116; Log10 Concentration −8.3): 88% | TGI (NCI-H226; 48 hour exposure): 2.21E−07 Molar | Percent Growth (NCI-H226; [1]): −76% | Percent Growth (NCI-H226; [2]): −55% | Percent Growth (NCI-H226; [3]): −38% | Percent Growth (NCI-H226; [4]): 69% | Percent Growth (NCI-H226; [5]): 104% | TGI (SF-539; 48 hour exposure): 2.07E−07 Molar | Percent Growth (SF-539; [1]): −90% | Percent Growth (SF-539; [2]): −84% | Percent Growth (SF-539; [3]): −47% | Percent Growth (SF-539; [4]): 75% | Percent Growth (SF-539; [5]): 89% | TGI (TK-10): >5.00E−05 Molar | Percent Growth (TK-10; Log10 Concentration −4.3): 8% | Percent Growth (TK-10; Log10 Concentration −5.3): 22% | Percent Growth (TK-10; Log10 Concentration −6.3): 31% | Percent Growth (TK-10; Log10 Concentration −7.3): 102% | Percent Growth (TK-10; Log10 Concentration −8.3): 100% | TGI (SNB-75): 1.90E−07 Molar | Percent Growth (SNB-75; Log10 Concentration −4.3): −51% | Percent Growth (SNB-75; Log10 Concentration −5.3): −84% | Percent Growth (SNB-75; Log10 Concentration −6.3): −44% | Percent Growth (SNB-75; Log10 Concentration −7.3): 60% | Percent Growth (SNB-75; Log10 Concentration −8.3): 77% | TGI (HOP-92; 48 hour exposure): 2.57E−06 Molar | Percent Growth (HOP-92; [1]): −38% | Percent Growth (HOP-92; [2]): −5% | Percent Growth (HOP-92; [3]): 12% | Percent Growth (HOP-92; [4]): 97% | Percent Growth (HOP-92; [5]): 101%
